Measured values: US20080045582A1, “ENA-78 Gene Polymorphisms and Protein Concentrations as Diagnostic and Prognostic Tools” (priority 2006, published 2008)

How the values were obtained:
ENA-78 [1] = assay: ENA-78 production by non-stimulated human umbilical vein endothelial cells, multiplex protein measurement; format: cell-based
Experimental: (§1) Human umbilical vein endothelial cells were obtained (Clonetics Cell Systems; Cambrex Bio Science Walkersville, Inc., Walkersville, Md.). Approximately 5×10^5 viable cells were seeded in endothelial cell growth-supplemented basal medium (EGM-2-endothelial cell medium-2; Cambrex Bio Science Walkersville, Inc.) and maintained at 37° C. under a 5% carbon dioxide atmosphere per manufacturer's protocol. The culture medium was changed 24 hours after seeding and every 48 hours thereafter until confluence. Cells were then treated with trypsin, seeded in a 48-well culture dish, and incubated under the conditions previously described. Cells used in this Example were from the third passage.
(§2) After cells reached 70-80% confluence in the culture dish, they were allowed to become quiescent in unsupplemented, serum-free medium for 24 hours before treatment and then placed in medium containing 2% fetal bovine serum. Atorvastatin (LKT Laboratories Inc., St. Paul, Minn.) was dissolved in dimethylsulfoxide (Sigma-Aldrich, St. Louis, Mo.). Cells were treated for 24 hours with atorvastatin 1-50 μM alone or with atorvastatin plus mevalonate 250 μM (Sigma-Aldrich). Controls were cells cultured without atorvastatin or atorvastatinmevalonate. […] All experiments were performed in duplicate.
(§3) After treatment, culture-conditioned media were collected, divided into aliquots, and stored at −80° C. for no longer than 7 days until multiplex measurement of chemokines, cytokines, and angiogenic factors was performed.
(§4) The culture-conditioned media protein content of epithelial neutrophil-activating peptide-78 (ENA-78), interleukin-8, (IL-8), monocyte chemotactic protein-1 (MCP-1), interleukin-6 (IL-6), interleukin-10 (IL-10), fibroblast growth factor (FGF), and granulocyte colony-stimulating factor (G-CSF) were measured by means of flow-based immunofluorescence multiplex detection (Fluorokine MAP Human Cytokine Panel; R&D Systems Inc., Minneapolis, Minn.) with the Luminex 100 IS platform (Luminex Corp., Austin, Tex.). Concentrations for each sample were normalized against milligrams of total protein by using a standard bicinchoninic acid protein assay (Pierce Biotechnology, Inc., Rockford, Ill.). Samples were assayed in duplicate.
(§5) Standard curves of best fit for each analyte were generated by plotting the median fluorescence intensities of the analyte standards against their known concentrations by using Beadview multiplex data analysis software version 1 (Upstate, Charlottesville, Va.).
(§6) Differences in biomolecular concentrations were compared by treatment group by applying one-way analysis of variance and a post-hoc Tukey's test as appropriate. The Jonckheere Terpstra test was performed to assess the trend for differences in biomolecular concentrations across concentrations of atorvastatin. […]

IL-8 = IL-8 production by non-stimulated human umbilical vein endothelial cells, multiplex protein measurement; format: cell-based
Experimental: as §1, §2, §3, §4, §5
Differences in biomolecular concentrations were compared by treatment group by applying one-way analysis of variance and a post-hoc Tukey's test as appropriate. The Jonckheere Terpstra test was performed to assess the trend for differences in biomolecular concentrations across concentrations of atorvastatin. A p value below 0.05 was considered to indicate a statistically significant difference. Statistical analyses were performed with SPSS software, version 11.5 (SPSS Inc., Chicago, Ill.).

MCP-1 = MCP-1 production by non-stimulated human umbilical vein endothelial cells, multiplex protein measurement; format: cell-based; details: highest concentration of atorvastatin plus mevalonate 250 μM
Experimental: as §1, §2, §3, §4, §5, §6

IL-6 = IL-6 production by non-stimulated human umbilical vein endothelial cells, multiplex protein measurement; format: cell-based; details: atorvastatin plus mevalonate 250 μM
Experimental: as §1, with “passage. […]” for “passage.”
as §4, with “Concentrations for each sample were normalized against milligrams of total protein by using a standard bicinchoninic acid protein assay (Pierce Biotechnology, Inc., Rockford, Ill.). Samples were assayed in duplicate.” left out

ENA-78 [2] = assay: IL-1beta-stimulated ENA-78 production from HUVECs, cytometric immunofluorescence; format: cell-based, human; details: IL-1beta and AT 10 uM; mevalonate 250 μM, FPP 5 μM, GGPP 5 μM, FIG. 16
Experimental: Human umbilical vein endothelial cells (HUVECs) (Clonetics Cell Systems; Cambrex Bio Science Walkersville, Inc., Walkersville, USA) were cultured as previously described. Briefly, HUVECs between passes three and four were seeded at a density of 2.5×10^4 cells per cm^2 and cultured to 80% confluence with endothelial cell growth-supplemented medium (EGM-2-endothelial cell medium-2; Cambrex Bio Science Walkersville, Inc.). Once confluent, media was changed to serum free endothelial basal media (EBM-2-endothelial cell medium-2; Cambrex Bio Science Walkersville, Inc.) for 24 hours prior to treatment, in which EBM-2 media supplemented to a 2% FBS concentration was used. Treatments consisted of atorvastatin calcium (AT; LKT Laboratories Inc., St. […] All were dissolved in molecular grade water. All final DMSO concentrations were less then 0.1%. […] In experiments investigating the impact of AT on IL-1beta-stimulated ENA-78 production, HUVECs were pre-treated with AT followed by IL-1beta stimulation two hours later. […] In a separate set of experiments, cells were cultured with IL-1beta and AT in the presence or absence of mevalonate, FPP, and GGPP to determine whether AT inhibition of ENA-78 production was dependent on HMG-CoA reductase inhibition and subsequent downstream pathways. Cell culture supernates for all experiments were stored at -20° C. until analysis, which was performed within seven days. ENA-78 concentrations were measured and normalized to total protein content in cell culture supernates using cytometric immunofluorescence as previously described. Ribonucleic acid (RNA) was isolated using a commercial kit (RNeasy mini kit, Qiagen Inc., Valencia, USA). Complementary deoxyribonucleic acid (cDNA) conversion was performed by high capacity cDNA reverse transcription (Applied Biosystems, Foster City, USA) per protocol using roughly 2 μg of total RNA. RNA quality was assessed by absorbance (Nanodrop, Nanodrop Technologies, Wilmington, USA). Real-time reverse-transcription PCR (RT-PCR) was done using primer and probe sets for CXCL5 normalized to a housekeeping gene, glyceraldehyde-3-phosphate dehydrogenase (GAPDH; Taqman Gene Expression Assays, Applied Biosystems Inc.). […] PCR for both CXCL5 and GAPDH was performed at the same time using the following conditions: 95° C. for 2 minutes; 35 cycles of 95° C. for 30 seconds, 59° C. for 30 seconds, and 72° C. for 30 seconds; followed by 7 minutes of elongation at 72° C. Statistical differences in normalized protein concentrations and gene expression levels were determined by one way ANOVA and post-hoc Tukey analysis. […] An independent t-test was used to compare treatment differences at the same time points in the dose range analysis. […] Statistical analyses were performed with SPSS software, version 11.5 (SPSS Inc., Chicago, USA).

[3] = highest concentration of atorvastatin

## mevalonate
ENA-78 [1]; atorvastatin plus mevalonate 250 μM, 24 hours
  effect of mevalonate cotreatment on atorvastatin effect on ENA-78 production: reversed
ENA-78 [1]; [3]
  reversal of atorvastatin effects on ENA-78 by mevalonate: potentially incomplete reversal
IL-8; [3]
  reversal of atorvastatin effects on IL-8 by mevalonate: potentially incomplete reversal
IL-8; mevalonate 250 μM, all atorvastatin groups
  effect of addition of mevalonate on atorvastatin effect on IL-8: reversed
MCP-1
  effect of mevalonate cotreatment on atorvastatin effect on MCP-1: reversed
IL-6
  effect of mevalonate on atorvastatin effect on IL-6: eliminated
ENA-78 [2]
  effect of co-treatment on the effect of AT on IL-1beta-stimulated ENA-78 production: partially reversed
